From PubChem BioAssay (NCI)
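Cells were grown in 96-well plates and exposed to each compound for 48 hours at five concentrations; endpoints were interpolated linearly between bracketing concentrations, or set to the highest concentration if not reached. The concentration for 50% growth inhibition is given as GI50. The concentration for full growth arrest is given as TGI.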

How the values were obtained:
Assay in all cases: NCI anticancer screen, dose series, 48 h
SW-620 colon = tested on: SW-620 colon
EKVX NSCLC = tested on: EKVX NSCLC
K-562 leukemia = tested on: K-562 leukemia
OVCAR-5 ovarian = tested on: OVCAR-5 ovarian
NCI-H226 lung = tested on: NCI-H226 lung
OVCAR-4 ovarian = tested on: OVCAR-4 ovarian
U251 CNS = tested on: U251 CNS
SF-268 CNS = tested on: SF-268 CNS
CCRF-CEM leukemia = tested on: CCRF-CEM leukemia
LOX IMVI melanoma = tested on: LOX IMVI melanoma
SF-539 CNS = tested on: SF-539 CNS

Structure (SMILES)	TGI (SW-620 colon)	TGI (EKVX NSCLC)	TGI (K-562 leukemia)	TGI (OVCAR-5 ovarian)	TGI (NCI-H226 lung)	TGI (OVCAR-4 ovarian)	TGI (U251 CNS)	TGI (SF-268 CNS)	TGI (CCRF-CEM leukemia)	TGI (LOX IMVI melanoma)	TGI (SF-539 CNS)	GI50 (SW-620 colon)	GI50 (EKVX NSCLC)	GI50 (K-562 leukemia)	GI50 (OVCAR-5 ovarian)	GI50 (OVCAR-4 ovarian)	GI50 (SF-268 CNS)	GI50 (CCRF-CEM leukemia)	GI50 (SF-539 CNS)
OC(CCN1CCN(CCOC(c2ccc(F)cc2)c2ccc(F)cc2)CC1)c1ccc(Br)cc1 (configuration not stated)	31.2 µM	17.7 µM	7 µM	29.4 µM	21.9 µM	13.9 µM	16.4 µM	17.6 µM	11.7 µM	4.07 µM	5.15 µM	–	–	–	–	–	–	–	–
COc1ccc2c(c1)-c1nc(=S)n(CCN(C)C)c3ccc([N+](=O)[O-])c(c13)N2	3.07 µM	7.29 µM	2.13 µM	8.04 µM	24.1 µM	13.3 µM	2.44 µM	2.16 µM	–	2.29 µM	2.5 µM	–	–	–	–	–	–	–	–
Cc1ccc2nc(Nc3ccccc3C)c(Nc3ccccc3C)nc2c1	> 100 µM	> 100 µM	> 57.4 µM	47.5 µM	> 89.7 µM	> 100 µM	> 70 µM	> 100 µM	> 80.6 µM	39.5 µM	> 100 µM	–	–	–	–	–	–	–	–
Fc1cccc(F)c1C1SCc2nc3cc(Cl)ccc3n21 (configuration not stated)	> 100 µM	> 100 µM	> 100 µM	> 100 µM	–	> 100 µM	> 31.6 µM	> 100 µM	> 100 µM	40 µM	> 100 µM	–	–	–	–	–	–	–	–
O=C1c2cc3c(cc2-c2c1c1cc(F)c(F)cc1c(=O)n2C[C@H](O)CO)OCO3	1.98 µM	8.77 µM	> 100 µM	4.55 µM	–	> 100 µM	–	> 100 µM	> 100 µM	–	0.14 µM	0.0431 µM	0.652 µM	0.069 µM	0.207 µM	0.423 µM	0.0411 µM	0.0349 µM	0.0288 µM
CN(C)C(=O)/N=C1\SC(=Nc2ccccc2)C(=Nc2ccccc2)N1c1ccc([N+](=O)[O-])cc1	–	–	> 100 µM	> 100 µM	> 100 µM	–	> 100 µM	–	> 100 µM	–	–	–	–	–	–	–	–	–	–
Fc1ccc(OCc2ccc3nc(-c4ccccc4)c(Cl)nc3c2)cc1	> 100 µM	> 100 µM	–	> 100 µM	–	> 100 µM	39 µM	> 100 µM	89.8 µM	> 100 µM	51.8 µM	–	–	–	–	–	–	–	–
CSc1ncnc2c1cnn2Cc1cn(COCC(O)CO)nn1 (configuration not stated)	> 100 µM	> 100 µM	–	> 100 µM	> 100 µM	> 100 µM	> 100 µM	52.7 µM	> 100 µM	> 100 µM	> 100 µM	–	–	–	–	–	–	–	–
Cn1c2ccccc2c2c3c(=O)[nH][nH]c(=O)c3c3c4ccccc4n(C)c3c21	> 100 µM	> 100 µM	> 100 µM	> 100 µM	> 100 µM	> 100 µM	> 100 µM	> 100 µM	> 100 µM	> 100 µM	> 100 µM	–	–	–	–	–	–	–	–
Cc1nn(C(=O)c2ccccc2O)c2c1C(c1ccc([N+](=O)[O-])cc1)SC(N)=N2 (configuration not stated)	> 10 µM	> 10 µM	> 10 µM	> 10 µM	> 9.22 µM	> 10 µM	> 10 µM	> 10 µM	> 9.13 µM	> 10 µM	> 2.67 µM	–	–	–	–	–	–	–	–
C[C@@](Br)(C(=O)O)[C@H](Br)C(=O)O	> 100 µM	> 100 µM	> 100 µM	> 100 µM	> 100 µM	> 100 µM	> 100 µM	> 100 µM	> 100 µM	> 100 µM	–	–	–	–	–	–	–	–	–
COc1ccc(C(=C2C(=O)OC(=O)C2=C(C)C)c2ccc(OC)cc2)cc1	> 100 µM	> 100 µM	–	> 100 µM	> 100 µM	92.5 µM	> 100 µM	> 100 µM	–	> 100 µM	> 100 µM	–	–	–	–	–	–	–	–
CCOC(=O)c1c(-c2ccc(OC)cc2)c(C#N)c(=S)n(C2OC(CO)C(O)C(O)C2O)c1C (configuration not stated)	> 100 µM	> 100 µM	> 100 µM	> 100 µM	> 100 µM	> 100 µM	> 100 µM	> 100 µM	> 100 µM	> 100 µM	> 100 µM	–	–	–	–	–	–	–	–
CC(C)NC(=O)OCc1c(COC(=O)NC(C)C)n(C)c2c1ccc1cc(Cl)c(Cl)cc12	23.5 µM	41.9 µM	> 100 µM	29.4 µM	17.3 µM	54.8 µM	29.3 µM	29.4 µM	> 100 µM	20.9 µM	27.1 µM	–	–	–	–	–	–	–	–
O/N=C/[C@H]1COC2(CCCCC2)O1	> 100 µM	> 100 µM	> 100 µM	> 100 µM	> 100 µM	> 100 µM	> 100 µM	> 100 µM	> 100 µM	> 100 µM	–	–	–	–	–	–	–	–	–
CC(C)(C)C#CI1OC(=O)c2ccccc21	10.3 µM	17.5 µM	11.7 µM	21.9 µM	15.2 µM	8.08 µM	11.2 µM	14.3 µM	6.09 µM	3.89 µM	7.13 µM	–	–	–	–	–	–	–	–
CCOP(=O)(CC1OC(CO)C(O)C1O)OCC (configuration not stated)	> 100 µM	> 100 µM	> 100 µM	> 100 µM	–	> 100 µM	> 100 µM	> 100 µM	> 100 µM	> 100 µM	> 100 µM	–	–	–	–	–	–	–	–
O=c1ccn([C@@H]2C=C(CO)[C@@H](O)[C@H]2O)c(=O)[nH]1	> 625 µM	–	–	–	> 625 µM	> 625 µM	> 625 µM	> 625 µM	> 625 µM	> 625 µM	> 625 µM	–	–	–	–	–	–	–	–
Clc1sc(Cl)c2c1[C@H](Br)C[C@@H]2Cl	45.6 µM	> 100 µM	> 100 µM	> 100 µM	–	> 100 µM	83.8 µM	49.9 µM	52.9 µM	49.5 µM	37.1 µM	–	–	–	–	–	–	–	–
Cc1ccc(S(=O)(=O)N2CCc3cc(O)c([N+](=O)[O-])cc32)cc1	> 100 µM	–	–	–	> 100 µM	> 100 µM	> 100 µM	> 100 µM	> 100 µM	> 100 µM	> 100 µM	–	–	–	–	–	–	–	–
